These results are taken from US12064426B2, “Selective inhibitors of ROCK1 and ROCK2 protein kinases and uses thereof” (GENOSCO Inc., priority 2021, dated 2024).

Test [1] has as its target T1, Recombinant ROCK1 (amino acids 1-477) (Homo sapiens, UniProt Q13464).
T1 construct: Recombinant ROCK1 (amino acids 1-477); by word order, ROCK1 from Carna Biosciences
The test can be described thus: ROCK inhibition assay, LANCE Ultra TR-FRET kinase assay (ROCK1). Format: biochemical. Conditions: 1 μM ATP, 50 nM ULight-CREBtide substrate. A digest of the protocol: (§1)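 LANCE Ultra TR-FRET kinase assay with recombinant ROCK1 (aa 1-477) or ROCK2 (aa 5-554), 50 nM ULight-CREBtide and ATP at 1 μM (ROCK1) or 4 μM (ROCK2) in HEPES pH 7.5 with MgCl2, 1 h at room temperature. EDTA stop with Eu anti-phospho-CREB Ser133 antibody; 665/615 nm read gives IC50.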
On the technique in general: TR-FRET usually uses a lanthanide donor and a delayed reading to cut background.

Test [2] concerns the target T2, Recombinant ROCK2 (amino acids 5-554) (Homo sapiens, UniProt O75116).
T2 construct: ROCK2 (amino acids 5-554); by word order, ROCK2 from SignalChem
The test can be described thus: ROCK inhibition assay, LANCE Ultra TR-FRET kinase assay (ROCK2). Format: biochemical. Conditions: 4 μM ATP, 50 nM ULight-CREBtide substrate. The procedure, abridged:
as §1

T2 sequence (O75116 5-554): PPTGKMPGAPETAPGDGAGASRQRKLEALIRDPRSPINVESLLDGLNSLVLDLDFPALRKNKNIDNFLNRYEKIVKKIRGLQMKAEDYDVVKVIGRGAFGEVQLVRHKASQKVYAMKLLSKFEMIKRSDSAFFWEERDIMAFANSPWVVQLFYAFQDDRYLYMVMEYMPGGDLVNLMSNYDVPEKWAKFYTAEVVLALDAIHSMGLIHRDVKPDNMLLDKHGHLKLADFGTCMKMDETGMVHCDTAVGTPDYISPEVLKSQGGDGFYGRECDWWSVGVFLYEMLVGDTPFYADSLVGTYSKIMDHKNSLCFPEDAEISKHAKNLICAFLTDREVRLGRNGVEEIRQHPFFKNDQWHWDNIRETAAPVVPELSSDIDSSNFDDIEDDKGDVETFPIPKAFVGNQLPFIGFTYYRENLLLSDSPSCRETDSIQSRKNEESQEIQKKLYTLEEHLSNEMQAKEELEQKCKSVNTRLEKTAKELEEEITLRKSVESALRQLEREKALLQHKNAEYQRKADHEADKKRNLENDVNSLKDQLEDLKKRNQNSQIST
T1 sequence (Q13464 1-477): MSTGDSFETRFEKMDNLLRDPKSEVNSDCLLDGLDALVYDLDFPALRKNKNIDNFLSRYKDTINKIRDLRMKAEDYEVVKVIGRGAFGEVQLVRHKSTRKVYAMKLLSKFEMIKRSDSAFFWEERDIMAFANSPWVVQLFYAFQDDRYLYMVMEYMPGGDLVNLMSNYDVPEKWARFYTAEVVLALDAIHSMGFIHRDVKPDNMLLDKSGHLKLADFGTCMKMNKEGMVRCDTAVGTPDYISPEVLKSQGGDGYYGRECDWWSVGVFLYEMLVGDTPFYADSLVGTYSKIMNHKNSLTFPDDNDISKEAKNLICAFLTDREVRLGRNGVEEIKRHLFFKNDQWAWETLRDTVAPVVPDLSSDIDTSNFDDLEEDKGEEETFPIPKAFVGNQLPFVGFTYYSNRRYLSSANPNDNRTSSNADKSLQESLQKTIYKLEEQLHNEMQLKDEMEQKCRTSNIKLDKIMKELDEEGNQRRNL

As a reminder, the IC50 is the midpoint of a concentration-inhibition curve. For `CNC(=O)c1cccc(Cn2cc(CCO)c3cc(-c4cn[nH]c4C(F)(F)F)ccc3c2=O)c1` [Compound 546, 3-((4-(2-hydroxyethyl)-1-oxo-6-(5-(trifluoromethyl)-1H-pyrazol-4-yl)isoquinolin-2(1H)-yl)methyl)-N-methylbenzamide], the half-inhibitory concentration (IC50) in test [1] is 0.011 to 0.1 µM; in test [2], less than 0.01 µM.
Taken in the same sequence, the figures for `Cc1nocc1-c1cc2ccn(Cc3cc(F)cc(C(=O)NCC4CCOCC4)c3)c(=O)c2cn1` [Compound 266] were 0.011 to 0.1 µM and less than 0.01 µM.
Taken in the same sequence, the figures for `COc1cccc([C@@H](CO)N2CNc3cc(-c4ccnn4C)ccc3C2=O)c1` [Compound 531] were more than 0.501 µM and 0.1 to 0.5 µM.
Taken in the same sequence, the figures for `[2H]C([2H])([2H])NC(=O)c1cccc(Cn2ccc3cc(-c4cn[nH]c4Br)ccc3c2=O)c1` [Compound 513] were 0.011 to 0.1 µM and less than 0.01 µM.
In the case of `CN(C)CCNC(=O)c1cccc(Cn2ccc3cc(-c4ccnn4C)ccc3c2=O)c1` [Compound 119], the IC50 in test [1] was 0.011 to 0.1 µM; in test [2], less than 0.01 µM.
Taken in the same sequence, the figures for `COc1cccc(Cn2ccc3cc(-c4c[nH]nc4C)ccc3c2=O)c1` [Compound 4] were 0.011 to 0.1 µM and less than 0.01 µM.
Taken in the same sequence, the figures for `Cc1nocc1-c1ccc2c(=O)n(Cc3cc(F)cc(C(=O)Nc4nc5c(s4)CCN(C(C)C)C5)c3)ccc2c1` [Compound 159] were 0.011 to 0.1 µM and less than 0.01 µM.
Taken in the same sequence, the figures for `CNC(=O)c1cccc([C@H](C)n2cnc3cc(-c4cn[nH]c4C(F)(F)F)ccc3c2=O)c1` [Compound 444] were 0.011 to 0.1 µM and less than 0.01 µM.
For the compound `Cn1ccc(NC(=O)c2cc(F)cc(Cn3ccc4cc(-c5ccnn5C)ccc4c3=O)c2)n1` [Compound 179], the figures for the IC50 in test [1] and in test [2] were 0.011 to 0.1 µM and less than 0.01 µM, respectively.
Taken in the same sequence, the figures for `Cn1nccc1-c1ccc2c(=O)n(Cc3cccc(C(=O)Nc4ccc5c(c4)CNCC5)c3)ccc2c1` [Compound 125] were less than 0.01 µM and less than 0.01 µM.
Taken in the same sequence, the figures for `CNC(=O)c1cccc(C(C)n2ccc3cc(-c4cn[nH]c4Cl)ccc3c2=O)c1` (stereo not shown) [Compound 292] were 0.011 to 0.1 µM and less than 0.01 µM.
Taken in the same sequence, the figures for `Nc1cc(-c2ccc3c(=O)n(Cc4cc(F)cc(C(=O)Nc5ccon5)c4)ccc3c2)ccn1` [Compound 205] were more than 0.501 µM and 0.1 to 0.5 µM.
Turning to `CNC(=O)c1cccc([C@@H](C)n2cnc3cc(-c4cn[nH]c4Br)ccc3c2=O)c1` [Compound 509, (R)-3-(1-(7-(5-bromo-1H-pyrazol-4-yl)-4-oxoquinazolin-3(4H)-yl)ethyl)-N-methylbenzamide], the results for the IC50 in test [1] and in test [2] were 0.011 to 0.1 µM and less than 0.01 µM, respectively.
Taken in the same sequence, the figures for `O=C(N[C@H]1C[C@@H](O)C1)c1cc(F)cc(Cn2ccc3cc(N4CCOCC4)ccc3c2=O)c1` [Compound 209] were more than 0.501 µM and 0.1 to 0.5 µM.
Taken in the same sequence, the figures for `COc1cccc(C(C)n2ccc3cc(-c4c[nH]nc4Cl)ccc3c2=O)c1` (stereo not shown) [Compound 19] were less than 0.01 µM and less than 0.01 µM.
Taken in the same sequence, the figures for `Cc1nocc1-c1ccc2c(=O)n(Cc3cccc(C(=O)NCC4CCOCC4)c3)cnc2c1` [Compound 416] were 0.011 to 0.1 µM and less than 0.01 µM.
In the case of `Cc1nocc1-c1cc2ccn(Cc3cc(F)cc(C(=O)NCCN4CCOCC4)c3)c(=O)c2cn1` [Compound 267], the IC50 in test [1] is 0.011 to 0.1 µM; in test [2], less than 0.01 µM.
Taken in the same sequence, the figures for `CN1CCC(CNC(=O)c2cccc(Cn3cnc4cc(-c5cn[nH]c5Cl)ccc4c3=O)c2)CC1` [Compound 410] were less than 0.01 µM and less than 0.01 µM.
As for `O=C(N[C@H]1CC[C@@H](O)CC1)c1cc(F)cc(Cn2ccc3cc(N4CCOCC4)ccc3c2=O)c1` [Compound 215], the IC50 in test [1] was more than 0.501 µM; in test [2] it was 0.1 to 0.5 µM.
Taken in the same sequence, the figures for `Cc1nocc1-c1ccc2c(=O)n(Cc3cc(F)cc(C(=O)NCC4CCN(C5CC5)CC4)c3)ccc2c1` [Compound 151] were 0.011 to 0.1 µM and less than 0.01 µM.
Taken in the same sequence, the figures for `O=C(NCCO)c1cccc(Cn2cnc3cc(-c4cn[nH]c4C(F)F)ccc3c2=O)c1` [Compound 393] were 0.011 to 0.1 µM and less than 0.01 µM.
Taken in the same sequence, the figures for `O=C(NC1CCOCC1)c1cc(F)cc(Cn2ccc3cc(N4CCOCC4)ccc3c2=O)c1` [Compound 211] were more than 0.501 µM and 0.1 to 0.5 µM.
For the compound `O=C(NCC1CCN(C2COC2)CC1)c1cc(F)cc(Cn2ccc3cc(N4CCOCC4)ccc3c2=O)c1` [Compound 228], the values for the IC50 in test [1] and in test [2] were 0.101 to 0.5 µM and 0.01 to 0.1 µM, respectively.
Taken in the same sequence, the figures for `Cc1n[nH]cc1-c1ccc2c(=O)n(Cc3cccc(C(=O)Nc4ccc(NS(C)(=O)=O)cc4)c3)ccc2c1` [Compound 37] were more than 0.501 µM and 0.1 to 0.5 µM.
Taken in the same sequence, the figures for `O=C(NCC1COC1)c1cccc(Cn2cnc3cc(-c4cn[nH]c4C(F)(F)F)ccc3c2=O)c1` [Compound 380] were 0.011 to 0.1 µM and less than 0.01 µM.
Take `O=C(Nc1cccc(Cn2ccc3cc(-c4c[nH]nc4C(F)(F)F)ccc3c2=O)c1)C1CCOCC1` [Compound 339]: the 50% inhibitory concentration (IC50) in test [1] was in the range of 0.101 to 0.5 µM; in test [2], 0.01 to 0.1 µM.
Taken in the same sequence, the figures for `NCC(c1cccc(C(N)=O)c1)n1cnc2cc(-c3ccnc(N)c3)ccc2c1=O` (stereo not shown) [Compound 506] were more than 0.501 µM and 0.1 to 0.5 µM.
Taken in the same sequence, the figures for `CNC(=O)c1cccc(Cn2cc(C(C)O)c3cc(-c4c[nH]nc4N)ccc3c2=O)c1` (stereo not shown) [Compound 544] were 0.011 to 0.1 µM and less than 0.01 µM.
As to `CC(=O)Nc1cc(F)cc(Cn2ccc3cc(-c4ccoc4C)ccc3c2=O)c1` [Compound 333], the values for the concentration for half-maximal inhibition (IC50) in test [1] and in test [2] were more than 0.501 µM and 0.1 to 0.5 µM, respectively.
Taken in the same sequence, the figures for `CNC(=O)c1cccc(Cn2cc(C(C)O)c3cc(-c4ccnn4C)ccc3c2=O)c1` (stereo not shown) [Compound 540] were 0.011 to 0.1 µM and less than 0.01 µM.
Take `CN1CCC(NC(=O)c2cccc(Cn3cnc4cc(-c5ccnn5C)ccc4c3=O)c2)CC1` [Compound 430]: the figures for the IC50 in test [1] and in test [2] were 0.011 to 0.1 µM and less than 0.01 µM, respectively.
Take `C[C@H](c1cccc(C(=O)NCC2CCN(C)CC2)c1)n1cnc2cc(-c3cn[nH]c3Cl)ccc2c1=O` [Compound 465]: the IC50 in test [1] and in test [2] was less than 0.01 µM in each case.
For `COc1cccc([C@@H](CO)N2CNc3cc(-c4cn[nH]c4Cl)ccc3C2=O)c1` [Compound 530], the concentration for half-maximal inhibition (IC50) is more than 0.501 µM in test [1] and 0.01 to 0.1 µM in test [2].
Taken in the same sequence, the figures for `Cc1nocc1-c1ccc2c(=O)n(Cc3cccc(C(=O)NCCN4CCOCC4)c3)cnc2c1` [Compound 420] were 0.011 to 0.1 µM and less than 0.01 µM.
Regarding `COCCNC(=O)c1cccc(Cn2ccc3cc(-c4ccnn4C)ccc3c2=O)c1` [Compound 120], the IC50 in test [1] fell in the range of 0.101 to 0.5 µM; in test [2], 0.1 to 0.5 µM.
Regarding `Nc1cc(-c2ccc3c(=O)n(Cc4cccc(C(=O)Nc5ccc6c(c5)COCC6)c4)ccc3c2)ccn1` [Compound 197], the half-maximal inhibitory concentration (IC50) in test [1] was 0.011 to 0.1 µM; in test [2], 0.01 to 0.1 µM.
Taken in the same sequence, the figures for `CNC(=O)c1cccc(Cn2ccc3cc(-c4ccoc4)ccc3c2=O)c1` [Compound 302] were more than 0.501 µM and more than 0.5 µM.
Taken in the same sequence, the figures for `C[C@H](c1cccc(C(=O)NCCN(C)C)c1)n1cnc2cc(-c3cn[nH]c3C(F)F)ccc2c1=O` [Compound 460] were less than 0.01 µM and less than 0.01 µM.
